Reference: patent US10793563B2, “GCN2 inhibitors and uses thereof” (Merck Patent GmbH, priority 2018, dated 2020)

How the values were obtained:
[1] = biological target: intracellular GCN2 (phosphorylation of the GCN2 substrate eIF2α) (Homo sapiens (Human), UniProt Q9P2K8); assay: GCN2 Cellular Inhibition Assay (AlphaScreen SureFire P-eIF2α Ser51, borrelidin-treated U2OS cells); type: cell-based; details: 10 μM borrelidin, 1 h, phosphorylated eIF2α Ser51, read-out: GCN2 Biomarker (IC50)
Procedure, shortened: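 Phospho-eIF2α (Ser51) measured by AlphaScreen SureFire in lysates of U2OS cells stimulated 1 h at 37 °C with 10 μM borrelidin alongside compound, 4-fold dilutions from 40 μM. Inhibition expressed as percent relative to borrelidin-alone controls.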

GCN2 kinase = GCN2 kinase (Homo sapiens (Human), UniProt Q9P2K8); assay: GCN2 Enzyme Inhibition Assay (Transcreener ADP2 fluorescence polarization); type: biochemical; details: 280 μM ATP, 200 μM (RS)7 peptide, 4 nM GCN2, 25° C.; for Ki: Ki(app)
Procedure, shortened: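 At 25 °C, GCN2 kinase (typical final concentration 4 nM) and (RS)7 peptide in Tris-HCl pH 7.5 buffer with MgCl2, NaCl and DTT were preincubated with compound for 10 min, then ATP was added for a 1 h reaction. ADP was read by FP with antibody/Alexa633 tracer. Non-linear tight-binding analysis gave IC50 and apparent Ki.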

Sequence of intracellular GCN2 (phosphorylation of the GCN2 substrate eIF2α) (Q9P2K8 whole entry): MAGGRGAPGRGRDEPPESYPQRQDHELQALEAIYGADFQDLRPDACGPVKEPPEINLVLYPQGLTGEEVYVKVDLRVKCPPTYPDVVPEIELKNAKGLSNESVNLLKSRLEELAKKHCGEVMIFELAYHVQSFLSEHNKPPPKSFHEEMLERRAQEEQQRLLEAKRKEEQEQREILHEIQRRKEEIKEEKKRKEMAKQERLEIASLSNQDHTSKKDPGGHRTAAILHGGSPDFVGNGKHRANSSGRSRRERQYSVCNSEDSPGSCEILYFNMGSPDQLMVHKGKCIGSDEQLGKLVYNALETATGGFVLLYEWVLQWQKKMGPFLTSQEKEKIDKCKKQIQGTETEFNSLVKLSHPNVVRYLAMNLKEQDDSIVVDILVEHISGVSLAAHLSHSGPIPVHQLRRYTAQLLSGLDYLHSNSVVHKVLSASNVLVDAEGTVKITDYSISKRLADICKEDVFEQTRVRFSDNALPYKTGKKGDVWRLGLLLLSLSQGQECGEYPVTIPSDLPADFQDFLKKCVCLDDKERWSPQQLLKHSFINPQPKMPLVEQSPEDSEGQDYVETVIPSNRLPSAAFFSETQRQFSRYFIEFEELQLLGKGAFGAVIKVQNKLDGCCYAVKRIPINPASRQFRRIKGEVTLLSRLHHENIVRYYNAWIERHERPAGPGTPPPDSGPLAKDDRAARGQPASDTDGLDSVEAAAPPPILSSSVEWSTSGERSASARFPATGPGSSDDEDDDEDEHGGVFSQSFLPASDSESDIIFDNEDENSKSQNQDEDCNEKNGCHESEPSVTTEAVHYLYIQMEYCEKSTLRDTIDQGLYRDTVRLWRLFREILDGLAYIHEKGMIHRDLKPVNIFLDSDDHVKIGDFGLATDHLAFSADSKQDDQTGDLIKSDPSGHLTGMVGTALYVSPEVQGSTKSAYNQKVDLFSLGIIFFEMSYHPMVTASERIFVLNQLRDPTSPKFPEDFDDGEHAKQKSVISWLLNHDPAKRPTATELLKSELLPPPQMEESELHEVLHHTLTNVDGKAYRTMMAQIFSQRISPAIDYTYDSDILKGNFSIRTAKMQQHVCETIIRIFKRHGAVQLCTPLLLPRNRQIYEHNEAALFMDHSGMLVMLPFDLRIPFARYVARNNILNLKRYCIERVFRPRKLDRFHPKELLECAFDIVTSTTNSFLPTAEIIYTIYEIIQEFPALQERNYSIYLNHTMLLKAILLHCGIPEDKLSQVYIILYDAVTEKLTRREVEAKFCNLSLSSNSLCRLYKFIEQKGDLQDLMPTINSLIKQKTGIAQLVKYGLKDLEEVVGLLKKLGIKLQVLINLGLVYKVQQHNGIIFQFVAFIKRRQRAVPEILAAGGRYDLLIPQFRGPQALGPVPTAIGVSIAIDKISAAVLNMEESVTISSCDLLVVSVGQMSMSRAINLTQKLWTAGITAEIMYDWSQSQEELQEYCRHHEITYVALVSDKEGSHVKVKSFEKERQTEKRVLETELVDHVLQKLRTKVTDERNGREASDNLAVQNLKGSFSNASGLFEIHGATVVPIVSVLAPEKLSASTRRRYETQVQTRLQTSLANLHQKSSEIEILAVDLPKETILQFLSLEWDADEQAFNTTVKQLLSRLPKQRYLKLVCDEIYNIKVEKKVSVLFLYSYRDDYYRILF
Sequence of GCN2 kinase (Q9P2K8 whole entry): as above

Compound: CS(=O)(=O)NC[C@@H]1CN(c2nc(-c3cnc4ccc(C(F)F)cn34)ns2)CCO1 [I-107, (S)—N-((4-(3-(6-(difluoromethyl)imidazo[1,2-a]pyridin-3-yl)-1,2,4-thiadiazol-5-yl)morpholin-2-yl)methyl)methanesulfonamide]
- IC50 [1]: < 500 nM
- Ki (GCN2 kinase): < 10 nM

Compound: CS(=O)(=O)N1CC2(CN(c3ccnc(-c4cnc5ccc(C(F)(F)F)cn45)n3)CCO2)C1 [I-447, 2-(methylsulfonyl)-8-(2-(6-(trifluoromethyl)imidazo[1,2-a]pyridin-3-yl)pyrimidin-4-yl)-5-oxa-2,8-diazaspiro[3.5]nonane]
- IC50 [1]: 500 to 5000 nM
- IC50 (GCN2 kinase): 10 to 100 nM

Compound: CC1CN(c2ccnc(-c3cnc4ccc(C(F)(F)F)cn34)n2)CC(C)N1C1CC1 (centres unmarked) [I-392, 3-(4-(4-cyclopropyl-3,5-dimethylpiperazin-1-yl)pyrimidin-2-yl)-6-(trifluoromethyl)imidazo[1,2-a]pyridine]
- IC50 [1]: 500 to 5000 nM
- IC50 (GCN2 kinase): 100 to 1000 nM

Compound: C[C@@H]1C[C@H](N=S(C)(C)=O)CN(c2nccc(-c3cnc4ccc(C(F)(F)F)cn34)n2)C1 [I-169, dimethyl(((3 S,5R)-5-methyl-1-(4-(6-(trifluoromethyl)imidazo[1,2-a]pyridin-3-yl)pyrimidin-2-yl)piperidin-3-yl)imino)-λ6-sulfanone]
- IC50 [1]: 500 to 5000 nM
- IC50 (GCN2 kinase): 10 to 100 nM

Compound: FC(F)(F)c1ccc2ncc(-c3nccc(N4CCNC(c5cn[nH]c5)C4)n3)n2c1 (centres unmarked) [I-351, 3-(4-(3-(1H-pyrazol-4-yl)piperazin-1-yl)pyrimidin-2-yl)-6-(trifluoromethyl)imidazo[1,2-a]pyridine]
- IC50 [1]: < 500 nM
- IC50 (GCN2 kinase): < 10 nM

Compound: Clc1ccc2ncc(-c3nccc(N4CCOC(c5cn[nH]c5)C4)n3)n2c1 (centres unmarked) [I-20, 4-[2-(6-Chloroimidazo[1,2-a]pyridin-3-yl)pyrimidin-4-yl]-2-(1H-pyrazol-4-yl)morpholine]
- IC50 [1]: < 500 nM
- Ki (GCN2 kinase): < 10 nM

Compound: NC(=O)[C@@H]1CN(c2ccnc(-c3cnc4cc(F)c(Cl)cn34)n2)CCN1C1CC1 [I-424, (S)-4-(2-(6-chloro-7-fluoroimidazo[1,2-a]pyridin-3-yl)pyrimidin-4-yl)-1-cyclopropylpiperazine-2-carboxamide]
- IC50 [1]: 500 to 5000 nM
- IC50 (GCN2 kinase): 10 to 100 nM

Compound: FC(F)(F)c1ccc2ncc(-c3nccc(N4CCN(CC5CC56CCOCC6)C(c5cn[nH]c5)C4)n3)n2c1 (centres unmarked) [I-476, 4-[4-({6-oxaspiro[2.5]octan-1-yl}methyl)-3-(1H-pyrazol-4-yl)piperazin-1-yl]-2-[6-(trifluoromethyl)imidazo[1,2-a]pyridin-3-yl]pyrimidine]
- IC50 [1]: < 500 nM
- IC50 (GCN2 kinase): < 10 nM

Compound: Cc1[nH]ncc1C1CN(c2ccnc(-c3cnc4ccc(Cl)cn34)n2)CC(C)N1 (centres unmarked) [I-267, 6-chloro-3-(4-(3-methyl-5-(5-methyl-1H-pyrazol-4-yl)piperazin-1-yl)pyrimidin-2-yl)imidazo[1,2-a]pyridine]
- IC50 [1]: 500 to 5000 nM
- IC50 (GCN2 kinase): 10 to 100 nM

Compound: Cc1cnc(N2C[C@@H](C)C[C@@H](c3cn[nH]c3)C2)nc1-c1cnc2ccc(Cl)cn12 [I-186, 6-chloro-3-(5-methyl-2-((3S,5S)-3-methyl-5-(1H-pyrazol-4-yl)piperidin-1-yl)pyrimidin-4-yl)imidazo[1,2-a]pyridine]
- IC50 [1]: < 500 nM
- IC50 (GCN2 kinase): < 10 nM

Compound: CC1(C)C[C@H]1CN1CCN(c2ccnc(-c3cnc4ccc(C(F)(F)F)cn34)n2)C[C@@H]1c1cn[nH]c1 [I-528, 3-(4-((S)-4-(((R)-2,2-dimethylcyclopropyl)methyl)-3-(1H-pyrazol-4-yl)piperazin-1-yl)pyrimidin-2-yl)-6-(trifluoromethyl)imidazo[1,2-a]pyridine]
- IC50 [1]: < 500 nM
- IC50 (GCN2 kinase): 10 to 100 nM

Compound: CC(=O)N1CCN(c2cccc(-c3cnc4ccc(C(F)(F)F)cn34)n2)CC1 [I-11, 1-[4-[6-[6-(Trifluoromethyl)imidazo[1,2-a]pyridin-3-yl]-2-pyridyl]piperazin-1-yl]ethanone]
- IC50 [1]: > 5000 nM
- Ki (GCN2 kinase): 10 to 100 nM

Compound: CS(C)(=O)=NC1CCCN(c2ccnc(-c3cnc4cc(F)c(Cl)cn34)n2)C1 (centres unmarked) [I-49, ((1-(2-(6-Chloro-7-fluoroimidazo[1,2-a]pyridin-3-yl)pyrimidin-4-yl)piperidin-3-yl)imino)dimethyl-λ^6-sulfanone]
- IC50 [1]: > 5000 nM
- Ki (GCN2 kinase): 10 to 100 nM

Compound: COCCn1cc([C@H]2C[C@H](C)CN(c3nccc(-c4cnc5ccc(C(F)(F)F)cn45)n3)C2)cn1 [I-144, 3-(2-((3R,5S)-3-(1-(2-methoxyethyl)-1H-pyrazol-4-yl)-5-methylpiperidin-1-yl)pyrimidin-4-yl)-6-(trifluoromethyl)imidazo[1,2-a]pyridine]
- IC50 [1]: < 500 nM
- IC50 (GCN2 kinase): 100 to 1000 nM

Compound: NC(=O)C1(O)CCCN(c2ccnc(-c3cnc4ccc(C(F)(F)F)cn34)n2)C1 (centres unmarked) [I-213, 3-hydroxy-1-(2-(6-(trifluoromethyl)imidazo[1,2-a]pyridin-3-yl)pyrimidin-4-yl)piperidine-3-carboxamide]
- IC50 [1]: 500 to 5000 nM
- IC50 (GCN2 kinase): 10 to 100 nM

Compound: C[C@@H]1C[C@H](N=S(C)(C)=O)CN(c2ccnc(-c3cnc4ccc(Br)cn34)n2)C1 [I-289, (((3 S,5R)-1-(2-(6-bromoimidazo[1,2-a]pyridin-3-yl)pyrimidin-4-yl)-5-methylpiperidin-3-yl)imino)dimethyl-λ6-sulfanone]
- IC50 [1]: 500 to 5000 nM
- IC50 (GCN2 kinase): 10 to 100 nM

Compound: Cc1cc(-c2cnc3ccc(Cl)cn23)nc(N2C[C@H](C)O[C@@H](c3c[nH]nc3C)C2)n1 [I-220, (2S,6S)-4-(4-(6-chloroimidazo[1,2-a]pyridin-3-yl)-6-methylpyrimidin-2-yl)-2-methyl-6-(5-methyl-1H-pyrazol-4-yl)morpholine]
- IC50 [1]: 500 to 5000 nM
- IC50 (GCN2 kinase): 10 to 100 nM

Compound: C[C@@H]1CCN(c2ccnc(-c3cnc4ccc(C(F)(F)F)cn34)n2)CC1F (stereo in doubt) [I-240, 3-(4-((3R,4R)-3-fluoro-4-methylpiperidin-1-yl)pyrimidin-2-yl)-6-(trifluoromethyl)imidazo[1,2-a]pyridine]
- IC50 [1]: 500 to 5000 nM
- IC50 (GCN2 kinase): 100 to 1000 nM

Compound: C[C@H]1CN(c2ccnc(-c3cnc4ccc(Cl)cn34)n2)C[C@H](c2cn[nH]c2F)O1 (stereo in doubt) [I-175, (2S,6S)-4-(2-(6-chloroimidazo[1,2-a]pyridin-3-yl)pyrimidin-4-yl)-2-(5-fluoro-1H-pyrazol-4-yl)-6-methylmorpholine]
- IC50 [1]: < 500 nM
- IC50 (GCN2 kinase): < 10 nM

Compound: NC(=O)[C@H]1CCCN(c2nccc(-c3cnc4ccc(C(F)(F)F)cn34)n2)C1 [I-153, (S)-1-(4-(6-(trifluoromethyl)imidazo[1,2-a]pyridin-3-yl)pyrimidin-2-yl)piperidine-3-carboxamide]
- IC50 [1]: < 500 nM
- IC50 (GCN2 kinase): < 10 nM

Compound: CCOC1(N2CCN(c3ccnc(-c4cnc5ccc(C(F)(F)F)cn45)n3)C(C)C2c2cn[nH]c2)CC1 (centres unmarked) [I-348, 3-(4-(4-(1-ethoxycyclopropyl)-2-methyl-3-(1H-pyrazol-4-yl)piperazin-1-yl)pyrimidin-2-yl)-6-(trifluoromethyl)imidazo[1,2-a]pyridine]
- IC50 [1]: < 500 nM
- IC50 (GCN2 kinase): 10 to 100 nM

Compound: Cc1[nH]ncc1C1CN(c2ccnc(-c3cnc4ccc(Cl)cn34)n2)CC(C)N1S(C)(=O)=O (centres unmarked) [I-268, 6-chloro-3-(4-(3-methyl-5-(5-methyl-1H-pyrazol-4-yl)-4-(methylsulfonyl)piperazin-1-yl)pyrimidin-2-yl)imidazo[1,2-a]pyridine]
- IC50 [1]: 500 to 5000 nM
- IC50 (GCN2 kinase): < 10 nM
